# Results published in publication PMC7481197, “Uncovering the cytochrome P450-catalyzed methylenedioxy bridge formation in streptovaricins biosynthesis” (Nature Communications, 2020).
# What was measured:
# Assay type in all cases: biochemical
# [1] = target: T1, StvM1 (Streptomyces spectabilis, UniProt A0A286SC47); assay: LC-ESI-HRMS conversion of […] to […]; conditions: methyl donor; 100 μM damavaricin C, 50 mM Tris-HCl pH 7.5, 28 °C, 3 h
# T1 construct: N-terminal 6xHis tag, pET28a(+) NdeI/EcoRI, expressed in E. coli BL21(DE3)
# T1 sequence (A0A286SC47 1-202): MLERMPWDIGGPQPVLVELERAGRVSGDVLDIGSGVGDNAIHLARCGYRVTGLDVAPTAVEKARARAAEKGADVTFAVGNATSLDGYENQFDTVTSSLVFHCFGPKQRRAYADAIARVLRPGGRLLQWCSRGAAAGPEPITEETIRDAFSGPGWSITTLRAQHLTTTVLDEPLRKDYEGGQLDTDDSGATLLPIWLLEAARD
# [2] = target: T2, StvP2 (Streptomyces spectabilis, UniProt A0A286SBY7); assay: HPLC-DAD product formation, modified Hill equation fit; conditions: spinach Fdx/FdR, 4 mM NADPH, 50 mM Tris-HCl pH 7.5, 28 °C, 4 min; substrate inhibition, descending arm
# T2 construct: N-terminal 6xHis tag, eight amino acids between tag and StvP2 removed, expressed in E. coli C43(DE3); heme-containing (Cys349 ligand); one molecule per asymmetric unit when substrate-free
# T2 sequence (A0A286SBY7 entry or part of it): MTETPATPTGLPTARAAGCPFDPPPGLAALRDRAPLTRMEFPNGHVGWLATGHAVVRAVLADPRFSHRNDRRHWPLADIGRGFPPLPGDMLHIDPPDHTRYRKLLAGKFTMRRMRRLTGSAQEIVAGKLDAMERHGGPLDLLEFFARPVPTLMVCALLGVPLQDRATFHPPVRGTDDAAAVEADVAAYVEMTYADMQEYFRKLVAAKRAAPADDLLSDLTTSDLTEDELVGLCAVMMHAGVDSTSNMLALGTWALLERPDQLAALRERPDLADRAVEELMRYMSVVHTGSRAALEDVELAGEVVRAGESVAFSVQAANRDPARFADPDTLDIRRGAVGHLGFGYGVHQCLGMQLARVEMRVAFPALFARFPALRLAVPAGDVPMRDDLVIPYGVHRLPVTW
# [3] = target: T2, StvP2; assay: as above; conditions: spinach Fdx/FdR, 4 mM NADPH, 50 mM Tris-HCl pH 7.5, 28 °C, 4 min; ascending arm of substrate-inhibition curve; read-out: Ks
Compound,LC-ESI-HRMS conversion of 7 to 8 [1],Ki [2],Km [3]
C[S+](CC[C@H](N)C(=O)O)C[C@H]1O[C@@H](n2cnc3c(N)ncnc32)[C@H](O)[C@@H]1O (stereo partly shown) [SAM],using SAM as methyl donor,,
6-methoxy-streptovaricin H [compound 4],,399.35 ± 122.10 µM,95.6 ± 30.8 µM
"COC(=O)[C@@H]1[C@H](O)[C@H](C)[C@H](O)[C@H](C)/C=C\C=C(/C)C(=O)Nc2c(C)c(OC(C)=O)c3c(c(OC)c(C)c(O)c3c2O)C(=O)/C(C)=C/[C@@](C)(O)[C@H](O)[C@@H](C)[C@H]1O [compound 2, 6-methoxy-streptovaricin C]",,367.30 ± 128.57 µM,110 ± 46.2 µM
6-methoxy-streptovaricin D [compound 6],,288.50 ± 122.60 µM,67.4 ± 28.4 µM
